Results from patent publication US6194399A, “Aryldiamine derivatives useful as antibacterial agents” (Scriptgen Pharmaceuticals, Inc., priority 1999, dated 2001).
≈ marks a conversion by molar mass, not a printed value. Where two headings read alike, the source gives them in different places.

Experiments:
wild-type S. aureus [1] = assay: MIC, broth microdilution assay; format: cell-based; conditions: Staphylococcus aureus
Method: (§1) The antimicrobial activity of a compound or formulation according to the invention is determined by exposing a culture comprising a bacterial species to different concentrations of the compound or formulation and monitoring the effects on growth relative to a control culture not exposed to the compound. Any method known in the art may be used to assess bacterial growth. Antimicrobial effects are expressed as Minimal Inhibitory Concentration (MIC) and Minimum Bactericidal Concentration (MBC).
(§2) The MIC may be expressed as a range between the concentration at which no growth is observed and the concentration of the dilution which immediately follows.
(§3) Typically, MIC is measured using a broth microdilution assay as follows. Dilution of candidate antimicrobial compounds in culture medium is performed in a sterile, covered 96-well microtiter plate with flat bottom wells (Costar #9017). The final concentrations of the compounds are typically 100, 50, 25, 12.5, 6.25, 3.12, 1.56, 0.78, 0.39, 0.20, 0.10, and 0.05 μg/mL, respectively. Culture medium only (containing no bacteria) is also included as a negative control for each plate. Ampicillin and rifampin are used as positive controls against all bacterial strains in every experiment.
(§4) The overnight culture of a single colony is diluted in sterile medium so that, after inoculation, each well contains approximately 5×10^5CFU/mL. Within 15 minutes of preparation, […] of the adjusted inoculum suspension is added to the microliter plate. Each well is diluted with an equal volume of the antimicrobial compounds or control solution. The inoculated microtiter plate is typically incubated at 35° C. for 16-20 hours. The turbidity of each well is determined by measuring the absorbance at 595 nm using a BioRad Model 3550-UV microplate reader.
(§5) The antimicrobial activities of the compounds of the invention, expressed as MIC and MBC, were determined as described above, using as tester strains wild-type S. aureus, rifampicin-resistant S. aureus, wild-type E. coli, and E. coli cells that had been permeabilized.

wild-type E. coli [2] = assay: MIC, broth microdilution assay; format: cell-based; conditions: Escherichia coli
Method: as §1, §2, §3, §4, §5

[3] = test system: rifampicin-resistant S. aureus; assay: MIC, broth microdilution assay; format: cell-based; conditions: Staphylococcus aureus, read-out: MIC rif^R -S. aureus
Method: as §1, §2, §3, §4, §5

[4] = test system: E. coli cells that had been permeabilized; assay: MBC determination; format: cell-based; conditions: Escherichia coli
Method: as §1
(§6) The minimum bactericidal concentration (MBC) is defined as the concentration of antimicrobial agent from which no colonies grow on petri plates or in the medium. […] Typically, the wells from a MIC microliter plate are made using a 96-well inoculation grid into a fresh microliter plate containing 100 μL Mueller-Hinton broth per well. The MBC plates are incubated at 37° C. for 16-20 hrs and the MBC values are determined.
as §5

wild-type S. aureus [5] = assay: MBC determination; format: cell-based; conditions: Staphylococcus aureus
Method: as §1, §6, §5

wild-type E. coli [6] = assay: MBC determination; format: cell-based; conditions: Escherichia coli
Method: as §1, §6, §5

human pol II = human pol II (Homo sapiens, UniProt P24928+P30876); assay: in vitro transcription reaction, RNA polymerase inhibition; format: biochemical
Method: RNA polymerase inhibition activity of a compound can be detected by including the compound in an in vitro transcription reaction and comparing the level of transcription that occurs in the presence and absence of the compound. The RNA polymerase may be from a bacterial source or, as a control, from an animal source. […] UTP; 400 μM each of ATP, GTP, and CTP; and RNA polymerase. After incubation for 60 minutes at 25° C., the reaction is terminated with 100 μl 10% TCA, which also precipitates the newly transcribed RNA, and incorporation of radioactivity into RNA is quantified.
In vitro and/or in vivo criteria may used to determine specificity. That is, the inhibitory activity of a particular compound towards an animal RNA polymerase may be measured in parallel with a bacterial RNA polymerase.
(§7) The compounds of the invention were included at a range of concentrations in in vitro transcription reactions containing purified RNA polymerase derived from either S. aureus, E. coli, or human, and template DNA comprising a pTaq promoter. The reaction conditions and analytical method are described above.

[7] = molecular target: purified RNA polymerase derived from S. aureus; assay: as above; format: biochemical
Method: (§8) RNA polymerase inhibition activity of a compound can be detected by including the compound in an in vitro transcription reaction and comparing the level of transcription that occurs in the presence and absence of the compound. The RNA polymerase may be from a bacterial source or, as a control, from an animal source. A typical transcription reaction (50μl) contains transcription buffer (50 mM Tris-HCl, pH 8.0, 200 mM KCl, 10 mM MgCl2,10 mM DTT and 1.5 μM BSA); 1 μg of DNA template; 4 μM UTP containing 5 μCi of [α-^2-32 P] UTP; 400 μM each of ATP, GTP, and CTP; and RNA polymerase. After incubation for 60 minutes at 25° C., the reaction is terminated with 100 μl 10% TCA, which also precipitates the newly transcribed RNA, and incorporation of radioactivity into RNA is quantified. The IC50 (expressed in μg/ml) is the concentration of a compound that inhibits RNA polymerase activity by 50%.
as §7

[8] = molecular target: purified RNA polymerase derived from E. coli (Escherichia coli, UniProt P0A7Z4+P0A8T7+P0A8V2); assay: as above; format: biochemical
Method: as §8, §7

[9] = test system: E. coli cells that had been permeabilized; assay: MIC, broth microdilution assay; format: cell-based; conditions: Escherichia coli, read-out: MIC E. coli*
Method: Within 15 minutes of preparation, […] of the adjusted inoculum suspension is added to the microliter plate.

purified RNA polymerase derived from E. coli, sequence (P0A8V2 whole entry): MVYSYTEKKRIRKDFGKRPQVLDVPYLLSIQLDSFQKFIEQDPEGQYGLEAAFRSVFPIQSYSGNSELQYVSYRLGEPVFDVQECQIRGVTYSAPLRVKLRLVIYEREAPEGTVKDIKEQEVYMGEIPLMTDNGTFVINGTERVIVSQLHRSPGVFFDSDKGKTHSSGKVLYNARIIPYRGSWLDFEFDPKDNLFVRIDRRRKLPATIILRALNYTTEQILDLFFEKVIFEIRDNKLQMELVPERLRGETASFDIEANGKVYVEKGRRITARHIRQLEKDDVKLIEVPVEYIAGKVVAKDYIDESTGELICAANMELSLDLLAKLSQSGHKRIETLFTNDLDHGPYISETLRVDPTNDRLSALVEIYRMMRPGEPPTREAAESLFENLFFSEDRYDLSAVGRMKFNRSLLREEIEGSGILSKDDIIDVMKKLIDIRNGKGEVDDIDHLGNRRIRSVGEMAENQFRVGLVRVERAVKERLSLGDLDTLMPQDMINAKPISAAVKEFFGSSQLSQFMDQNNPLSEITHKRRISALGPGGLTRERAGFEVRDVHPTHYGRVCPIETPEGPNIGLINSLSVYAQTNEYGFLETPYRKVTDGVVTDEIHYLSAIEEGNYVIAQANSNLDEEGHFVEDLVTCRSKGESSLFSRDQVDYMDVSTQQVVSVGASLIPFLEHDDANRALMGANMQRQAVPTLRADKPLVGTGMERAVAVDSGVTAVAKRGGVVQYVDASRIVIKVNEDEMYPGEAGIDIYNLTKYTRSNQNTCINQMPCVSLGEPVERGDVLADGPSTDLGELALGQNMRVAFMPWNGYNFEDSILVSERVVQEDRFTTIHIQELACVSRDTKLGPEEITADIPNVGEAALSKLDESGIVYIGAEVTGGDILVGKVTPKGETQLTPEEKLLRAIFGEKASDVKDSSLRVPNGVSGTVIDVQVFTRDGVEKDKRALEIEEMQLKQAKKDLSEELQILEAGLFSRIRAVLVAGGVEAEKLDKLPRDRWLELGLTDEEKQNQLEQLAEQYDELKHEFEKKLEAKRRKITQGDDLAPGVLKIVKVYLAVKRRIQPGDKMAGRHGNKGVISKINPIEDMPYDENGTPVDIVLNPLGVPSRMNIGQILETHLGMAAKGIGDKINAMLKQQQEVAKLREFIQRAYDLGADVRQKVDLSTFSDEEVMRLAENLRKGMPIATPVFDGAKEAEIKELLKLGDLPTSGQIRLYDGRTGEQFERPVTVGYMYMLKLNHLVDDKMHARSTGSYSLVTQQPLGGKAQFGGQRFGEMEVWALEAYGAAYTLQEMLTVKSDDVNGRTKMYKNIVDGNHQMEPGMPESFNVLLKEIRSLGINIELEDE
purified RNA polymerase derived from E. coli, sequence (P0A8T7 whole entry): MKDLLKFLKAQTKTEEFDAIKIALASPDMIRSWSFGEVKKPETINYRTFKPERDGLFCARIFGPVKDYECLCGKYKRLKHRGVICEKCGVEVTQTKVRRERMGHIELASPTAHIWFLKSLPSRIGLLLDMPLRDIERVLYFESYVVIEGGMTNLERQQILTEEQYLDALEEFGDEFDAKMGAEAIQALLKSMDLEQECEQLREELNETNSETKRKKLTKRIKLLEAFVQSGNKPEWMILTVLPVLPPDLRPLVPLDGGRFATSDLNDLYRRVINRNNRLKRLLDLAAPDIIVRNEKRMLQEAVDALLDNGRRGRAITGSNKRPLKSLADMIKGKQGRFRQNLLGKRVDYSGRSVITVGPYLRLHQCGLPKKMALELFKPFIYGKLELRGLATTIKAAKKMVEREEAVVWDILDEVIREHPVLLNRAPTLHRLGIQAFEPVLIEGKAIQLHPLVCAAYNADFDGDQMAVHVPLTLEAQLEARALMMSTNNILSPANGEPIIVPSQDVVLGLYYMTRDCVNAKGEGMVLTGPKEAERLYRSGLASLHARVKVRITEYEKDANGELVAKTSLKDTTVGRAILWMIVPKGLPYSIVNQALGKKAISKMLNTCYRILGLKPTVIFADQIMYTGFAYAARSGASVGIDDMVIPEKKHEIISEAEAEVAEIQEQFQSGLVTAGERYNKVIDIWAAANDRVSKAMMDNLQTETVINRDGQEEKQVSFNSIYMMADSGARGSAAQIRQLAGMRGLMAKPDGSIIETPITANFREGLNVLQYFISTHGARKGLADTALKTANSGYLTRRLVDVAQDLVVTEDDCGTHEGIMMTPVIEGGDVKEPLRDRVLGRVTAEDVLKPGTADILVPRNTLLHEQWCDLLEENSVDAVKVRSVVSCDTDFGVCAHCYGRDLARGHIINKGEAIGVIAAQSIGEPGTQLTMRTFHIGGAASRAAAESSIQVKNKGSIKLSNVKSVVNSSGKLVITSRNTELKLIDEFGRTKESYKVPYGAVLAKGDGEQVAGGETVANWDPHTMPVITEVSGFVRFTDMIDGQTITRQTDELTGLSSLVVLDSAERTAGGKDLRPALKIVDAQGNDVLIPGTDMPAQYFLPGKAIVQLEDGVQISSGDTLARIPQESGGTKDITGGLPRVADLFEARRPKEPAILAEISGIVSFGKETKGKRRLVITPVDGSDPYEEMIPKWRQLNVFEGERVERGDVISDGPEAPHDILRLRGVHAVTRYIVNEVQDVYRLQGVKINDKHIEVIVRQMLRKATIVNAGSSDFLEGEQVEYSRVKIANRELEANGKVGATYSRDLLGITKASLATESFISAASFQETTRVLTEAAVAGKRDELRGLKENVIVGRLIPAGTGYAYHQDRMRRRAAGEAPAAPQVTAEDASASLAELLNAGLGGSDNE
purified RNA polymerase derived from E. coli, sequence (P0A7Z4 whole entry): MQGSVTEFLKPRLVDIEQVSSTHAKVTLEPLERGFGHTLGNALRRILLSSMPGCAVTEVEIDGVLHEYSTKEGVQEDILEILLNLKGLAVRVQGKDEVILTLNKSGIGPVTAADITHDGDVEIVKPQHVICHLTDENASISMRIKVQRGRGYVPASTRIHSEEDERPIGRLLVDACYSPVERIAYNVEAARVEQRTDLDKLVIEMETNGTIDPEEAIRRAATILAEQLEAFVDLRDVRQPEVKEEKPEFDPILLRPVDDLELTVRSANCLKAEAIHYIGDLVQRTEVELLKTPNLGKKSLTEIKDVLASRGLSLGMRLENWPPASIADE

## NCCNc1ccc([N+](=O)[O-])c(N2CCN(c3ccc([N+](=O)[O-])cc3)CC2)c1 [Compound (B)]
wild-type S. aureus [1]
  MIC: 1 µg/mL (≈ 2.59 µM)
wild-type E. coli [2]
  MIC: 8 µg/mL (≈ 20.7 µM)
[3]
  MIC: 2 µg/mL (≈ 5.18 µM)
[4]
  MBC: 2 µg/mL (≈ 5.18 µM)
wild-type S. aureus [5]
  MBC: 8 µg/mL (≈ 20.7 µM)
wild-type E. coli [6]
  MBC: 32 µg/mL (≈ 82.8 µM)
Human pol II
  IC50: 104 µM
[7]
  IC50: 10.4 µM
[8]
  IC50: 23.3 µM
[9]
  MIC: 4 µg/mL (≈ 10.4 µM)

## CO[C@H]1/C=C/O[C@@]2(C)Oc3c(C)c(O)c4c(O)c(c(/C=N/N5CCN(C)CC5)c(O)c4c3C2=O)NC(=O)/C(C)=C\C=C\[C@H](C)[C@H](O)[C@@H](C)[C@@H](O)[C@@H](C)[C@H](OC(C)=O)[C@@H]1C [Rif, rifampin, reference compound]
wild-type S. aureus [1]
  MIC: < 0.03 µg/mL
wild-type E. coli [2]
  MIC: 4 µg/mL (≈ 4.86 µM)
[3]
  MIC: > 64 µg/mL
[9]
  MIC: < 0.03 µg/mL

## CC1(C)S[C@@H]2[C@H](NC(=O)[C@H](N)c3ccccc3)C(=O)N2[C@H]1C(=O)O [Amp, Ampicillin, reference compound]
wild-type S. aureus [1]
  MIC: 8 µg/mL (≈ 22.9 µM)
wild-type E. coli [2]
  MIC: 2 µg/mL (≈ 5.72 µM)
[3]
  MIC: 4 µg/mL (≈ 11.4 µM)

## NCCNc1ccc([N+](=O)[O-])c(NCCOc2ccccc2)c1 [Compound (A), N^1-(2-aminoethyl)-4-nitro-N^3-(2-phenoxyethyl)-1,3-benzenediamine]
wild-type S. aureus [1]
  MIC: 6 µg/mL (≈ 19 µM)
wild-type E. coli [2]
  MIC: 13 µg/mL (≈ 41.1 µM)
[3]
  MIC: 13 µg/mL (≈ 41.1 µM)
[4]
  MBC: 25 µg/mL (≈ 79 µM)
wild-type S. aureus [5]
  MBC: 25 µg/mL (≈ 79 µM)
wild-type E. coli [6]
  MBC: 50 µg/mL (≈ 158 µM)
Human pol II; bacterial (S. aureus, E. coli) versus human RNA polymerase
  selectivity for bacterial RNA polymerase relative to human RNA polymerase: highest degree of selectivity
Human pol II; pTaq promoter template DNA, 60 minutes at 25° C., read-out: IC50 human pol II (converted)
  IC50: 316 µM
[7]; pTaq promoter template DNA, 60 minutes at 25° C., read-out: IC50 S. aureus RNA polymerase (converted)
  IC50: 12.6 µM
[8]; pTaq promoter template DNA, 60 minutes at 25° C., read-out: IC50 E. coli RNA polymerase (converted)
  IC50: 25.3 µM
